Legend:
[1] = design: method as in PMID 17020252, PMID 24063545, doi:10.1002/(SICI)1099-1409(199803/04)2:2<145::AID-JPP60>3.0.CO; details: in DMF, standard; cited from earlier work
[2] = standard; cited from earlier work
[3] = test system: NKE cells (human kidney epithelium); assay: Comet assay (DNA damage test); format: cell-based; details: 1 μg/mL, 24 h, positive control
Method: Comet assay. NKE cells (human kidney epithelium) were seeded into 24-well plates at 8 × 10^4 per well and incubated in DMEM medium (PanEco, Russia) with penicillin-streptomycin (50 units/mL) (PanEco, Russia) and 10% fetal bovine serum (PanEco, Russia) at 37 °C in 5% CO2. After 24 h, the medium was changed to a similar one but without serum to avoid interaction of the studied substance with it. […] Cells serving as positive controls were treated with ifosfamide (Baxter Oncology, Germany) at a final concentration of 1 μg/mL. Cell culture with the substances was left for 24 h at 37 °C in 5% CO2. Once this time was reached, the cells were removed from the substrate and washed twice with phosphate-salt buffer (PBS). Direct Comet assay was performed using OxiSelect™ Comet Assay Kit (Cell Biolabs, USA) according to the manufacturer’s protocol. Samples were stained with fluorescent dye Sybr Gold, Invitrogene, USA, and examined with a Zeiss microscope using a filter for FITC-fluorescence. All necessary measurements were performed using the computer program CometScore2.0. Statistics were calculated using Student’s t-test using the Microsoft Excel software package.
During the study, the NKE cells were seeded in 24-well plates. […] After this time, the assay itself was performed using OxiSelect™ Comet Assay Kit (Cell Biolabs, San Diego, CA, USA). […]

[4] = Singlet oxygen quantum yield, DPBF oxidation in DMF, ZnTPP as standard; format: physicochemical; details: air-saturated, λ ≥ 500 nm
Excerpt: Photochemical experiments for singlet oxygen quantum yield determination. Porphyrin-containing samples were irradiated in quartz cells at room temperature in air-saturated DMF solutions. Light source consisted of halogen lamp (150 W), thermal and UV filters, a three-lens spherical condenser with a reflector, and a cut-off filter (λ ≥ 500 nm). The light flux power was 10 mW/cm^2. The efficiency of photosensitised ^1O2 generation in porphyrin solutions was estimated from the dynamics of the absorbance decrease at 415 nm, corresponding to the absorption maximum of the selective ^1O2 acceptor-1,3-diphenylisobenzofuran (DPBF). DPBF was added to the solution of the tested compound in the dark immediately before the start of the photochemical experiment (CDPBF = 0.1 mM). […] The singlet oxygen quantum yield (ΦΔ) were calculated according to the known procedure with ZnTPP being a standard (ΦΔ = 0.74 in DMF).

[5] = Aggregation behaviour, UV-vis absorption and fluorescence spectra in DMF and aqueous solubiliser solutions; format: physicochemical; details: DMSO
[6] = test system: NKE (human normal kidney epithelial) cell line; assay: Cell viability study (MTT-test) with and without irradiation; format: cell-based
Method: (§1) Biological activity. Cell viability study (MTT-test) on Hep2 (human laryngeal cancer) and NKE (normal kidney epithelial) cell lines. For this study, cells were plated into 96-well plates (BD Micro-FinePlus, Franklin Lakes, USA) (6 × 10^3 cells in 180 μL of culture medium) and incubated for 24 h at 37 °C in 5% CO2. The medium was standard DMEM (PanEco, Moscow, Russia) with penicillin-streptomycin (50 units/mL) (PanEco, Moscow, Russia) supplemented with 10% fetal bovine serum (PanEco, Russia). After this time, culture medium was replaced with a similar volume of Hanks’ solution (PanEco, Russia) with glucose added at a final concentration of 4.5 mg/mL. On the day of the experiment, serial dilutions of the compound in deionised water were made and 20 μL was added to the cell culture. The cell culture thus obtained was irradiated for 90 min using a Medical Therapy Philips TL 20W/52 lamp (wavelength 400–500 nm), power 2.3 mW. In parallel, the cell culture was incubated with the compound in the dark. After 90 min, in both cases, Hanks’ solution with the compound was replaced with DMEM medium without serum. The cell culture was then left for 24 h at 37 °C in 5% CO2 in the dark, after which 10 μL of MTT reagent solution (5 mg/mL, PanEco, Russia) was added and incubated for another 3.5 h. The formed formazan in cells was dissolved in 100 μL DMSO. The optical density of the solution was measured on a MultiScan MCC 340 spectrophotometer (Labsystems, Kennett Square, PA, USA) at 540 nm. Each series of experiments was repeated 3 times. […] Statistical processing of the obtained data was performed using Excel program package (Microsoft).
(§2) Cell viability study (MTT-test). The cytotoxicity of compounds 12 and 14 was studied on a Hep2 cell line (human laryngeal cancer) and NKE (human normal kidney epithelial), with and without irradiation. Two approaches were used when treating the cells. In the first case, compounds 12 and 14 were introduced into the cell culture only for the irradiation time (90 min). After that, the cell medium containing one of the compounds was removed. The cells were incubated in a fresh DMEM medium without compounds for a further 24 h, after which time the results were evaluated. The IC50 values were close for both cell lines (Table 4, Figure 5 and Figure S58). […] The results for the NKE cell line are presented in Table 4 and Figure S58 (Supporting Information).
(§3) In the second series of experiments, cell viability was evaluated 24 h after irradiation without removing the compound from the culture medium.

[7] = test system: Hep2 cell line (human laryngeal cancer); assay: as above; format: cell-based
Method: as §1, §2, §3

[8] = Aggregation behaviour, UV-vis absorption and fluorescence spectra in DMF and aqueous solubiliser solutions; format: physicochemical
Method: Aggregation behavior, photophysical characterization and solubilisation studies. Photophysical properties of zinc complexes of amphiphilic meso-arylporphyrins and their conjugates with terpyridine were studied in DMF and aqueous solutions of different solubilisers. Stock solutions of 1 mM of the studied compounds in DMF were added upon stirring to a micellar aqueous solution of a solubiliser (3 mL). The final concentration of the porphyrins was 3.5 µM. UV-vis absorption spectra were recorded using HACH DR-4000V spectrophotometer (Hach-Lange, Loveland, CO, USA) within the wavelength range of 320–800 nm with a step of 1 nm in quartz cells (10 mm) at room temperature. Steady-state fluorescence spectra were recorded using Perkin Elmer LS-50 (USA) luminescent spectrometer under similar conditions with the Soret band maximum excitation. Fluorescence quantum yields (ΦF) for Zn(II) complexes in DMF were measured according to the procedure using ZnTPP as a standard (ΦF = 0.033).

C1=Cc2nc1c(-c1ccccc1)c1ccc([n-]1)c(-c1ccccc1)c1nc(c(-c3ccccc3)c3ccc([n-]3)c2-c2ccccc2)C=C1.[Zn+2] [ZnTPP]
singlet oxygen quantum yield ΦΔ [1]: 0.74 | fluorescence quantum yield ΦF [2]: 0.033

O=P1(NCCCl)OCCCN1CCCl (centres unmarked) [ifosfamide]
proportion of 'comet' cells [3]: 36.1 ± 2.14%

CCCCCCOc1ccc(-c2c3nc(c(-c4ccc(OCCCCCC)cc4)c4ccc([n-]4)c(-c4ccc(OCc5ccc(-c6cc(-c7ccccn7)nc(-c7ccccn7)c6)cc5)cc4)c4nc(c(-c5ccc(OCCCCCC)cc5)c5ccc2[n-]5)C=C4)C=C3)cc1.[Zn+2] [compound 12]
singlet oxygen quantum yield [4]: about 65% | ΔλB (half-width of the Soret band) [5]: 10 nm | IC50 ([6]; dark conditions, 24 h): 2440 ± 281 nM | IC50 ([6]; light irradiation 8.073 J/cm^2, 24 h): 2570 ± 320 nM | IC50 ([6]; light irradiation 8.073 J/cm^2, […]): 1700 ± 297 nM | IC50 ([7]; dark conditions, 24 h): 2550 ± 280 nM | toxic effect without irradiation ([7]; dark, […] incubation, studied concentration range): no toxic effect | IC50 ([7]; light irradiation 8.073 J/cm^2, 24 h, compound not removed): 2470 ± 233 nM | IC50 ([7]; light irradiation 90 min, 8.073 J/cm^2, compound present […] then removed, read after 24 h): 1870 ± 333 nM | solubilisation ([8]; 0.5 mM Tween-80, 1% Cremophor EL and 1% Pluronic F-127): partial solubilisation | lgε ([8]; Brij-58 (0.5 mM)): 5.15 | ΔλB (half-width of the Soret band) ([8]; Brij-58 (0.5 mM)): 28 nm | λem, second band ([8]; Brij-58 (0.5 mM)): 660 nm | lgε ([8]; Cremophor (1% Cremophor EL)): 5.35 | ΔλB (half-width of the Soret band) ([8]; Cremophor (1% Cremophor EL)): 27 nm | λem, second band ([8]; Cremophor (1% Cremophor EL)): 655 nm | λmax ([8]; Cremophor (1% Cremophor EL)): 430 | molar absorption coefficient, times lower than for ZnTPP ([8]; DMF): 1.5 times | λQ (first Q band) ([8]; DMF): 560 nm | lgε ([8]; DMSO): 5.70 | ΔλB (half-width of the Soret band) ([8]; H2O): 36 nm | λem, second band ([8]; H2O): 660 nm | lgε ([8]; Pluronic (1% Pluronic F-127)): 5.36 | ΔλB (half-width of the Soret band) ([8]; Pluronic (1% Pluronic F-127)): 22 nm | λem, second band ([8]; Pluronic (1% Pluronic F-127)): 658 nm | lgε ([8]; TX-100 (1 mM)): 5.34 | ΔλB (half-width of the Soret band) ([8]; TX-100 (1 mM)): 25 nm | lgε ([8]; Tween-80 (0.5 mM)): 5.40 | ΔλB (half-width of the Soret band) ([8]; Tween-80 (0.5 mM)): 19 nm

Reference: PMC9865040, “Design of A3B-Porphyrin Conjugates with Terpyridine as Potential Theranostic Agents: Synthesis, Complexation with Fe(III), Gd(III), and Photodynamic Activity” (Pharmaceutics, 2023)
